≈ marks a conversion by molar mass, not a printed value. Calls of active or inactive are those of the source. The calls are words filed in the database; no cut-off is given here.
Tests used:
[1] = molecular target: T1, Malonyl-CoA decarboxylase, mitochondrial (Homo sapiens, UniProt O95822); test: Inhibition of MCD at 10 uM
T1 sequence (O95822 whole entry): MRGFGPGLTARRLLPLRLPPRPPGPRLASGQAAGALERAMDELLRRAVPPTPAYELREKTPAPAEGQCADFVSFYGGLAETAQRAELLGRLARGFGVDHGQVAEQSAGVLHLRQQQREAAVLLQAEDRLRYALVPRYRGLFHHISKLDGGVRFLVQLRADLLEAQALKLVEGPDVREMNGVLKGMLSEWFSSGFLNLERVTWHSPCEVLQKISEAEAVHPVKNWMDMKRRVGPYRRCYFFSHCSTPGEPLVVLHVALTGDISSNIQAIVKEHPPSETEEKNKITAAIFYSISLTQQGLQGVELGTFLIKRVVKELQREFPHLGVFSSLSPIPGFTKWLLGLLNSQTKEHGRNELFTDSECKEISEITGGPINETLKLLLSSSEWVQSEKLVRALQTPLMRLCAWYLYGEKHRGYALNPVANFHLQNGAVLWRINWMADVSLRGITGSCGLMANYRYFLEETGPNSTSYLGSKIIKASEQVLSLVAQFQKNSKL

[2] = Stability in rat liver microsomes at 5 uM
[3] = Stability in human liver microsomes at 5 uM
[4] = Solubility in PBS at pH 7.4
[5] = Caco-2 cell membrane permeability; conditions: human
Sus scrofa = organism: Sus scrofa; test: Decrease in lactate production in ischemic pig heart; assay type: functional, organism-based

Row | SMILES | IC50 [1] | remaining at 5 µM [2] | remaining at 5 µM [3] | solubility [4] | Papp [5] | Activity (Sus scrofa)
1 | O=C(Nc1ccccc1)Nc1ccc(C(O)(C(F)(F)F)C(F)(F)F)cc1 | Not Active | – | – | – | – | –
2 | O=C(O)CCCCN(C(=O)N1CCOCC1)c1ccc(C(O)(C(F)(F)F)C(F)(F)F)cc1 | – | 108% | 99% | 206 µM (≈ 97.1 µg/mL) | – | –
3 | CCN(C(=O)c1ccc(C#N)cc1)c1ccc(C(O)(C(F)(F)F)C(F)(F)F)cc1 | – | 66% | 93% | 8.7 µM (≈ 3.62 µg/mL) | 38.7 ×10⁻⁶ cm/s | –
4 | COC(=O)CCCCN(C(=O)N1CCOCC1)c1ccc(C(O)(C(F)(F)F)C(F)(F)F)cc1 | – | – | – | – | – | Active
5 | O=C(Nc1ccc(C(O)(C(F)(F)F)C(F)(F)F)cc1)N1CCOCC1 | Not Active | – | – | – | – | –

Further lines, with some results ahead:

Row | IC50 [1] | remaining at 5 µM [2] | remaining at 5 µM [3] | solubility [4] | Papp [5] | SMILES | Activity (Sus scrofa)
6 | Not Active | – | – | – | – | CC(C)C(=O)Nc1ccc(C(O)(C(F)(F)F)C(F)(F)F)cc1 | –
7 | – | 9% | 87% | 189 µM (≈ 75.8 µg/mL) | 68.2 ×10⁻⁶ cm/s | CCN(C(=O)N1CCOCC1)c1ccc(C(O)(C(F)(F)F)C(F)(F)F)cc1 | –
8 | – | 7% | 51% | 187 µM (≈ 80.6 µg/mL) | 49.4 ×10⁻⁶ cm/s | CCN(CCCCO)C(=O)N(CC)c1ccc(C(O)(C(F)(F)F)C(F)(F)F)cc1 | –
